From patent US20250136581A1, “SUBSTITUTED TRIAZOLE DERIVATIVE, PREPARATION METHOD THEREFOR, PHARMACEUTICAL COMPOSITION THEREOF, AND USE THEREOF” (SHANGHAI SIMR BIOTECHNOLOGY CO., LTD., priority 2021, published 2025)

Each molecule was assayed against human α5β3γ2 receptors (α5-GABAA receptor) (Homo sapiens (Human), UniProt P18507+P31644) (assay: 3H-flunitrazepam competition binding, human α5β3γ2 GABAA receptor). Conditions: HEK293 cell membranes, 1 nM 3H-flunitrazepam; read-out: α5-GABAAR Ki.
Summary of the method: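 Radioligand displacement of 1 nM 3H-flunitrazepam from membranes of HEK293 lines stably expressing the human subtypes, 1 h at room temperature, compound in 8-point 4-fold series. Bound label on GF/C filters counted by scintillation; Ki derived from fitted IC50, with flumazenil as low control.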
For `Cc1nnn(-c2ccc(C(F)F)cc2)c1COc1ccc(N2CCN[C@H](C(=O)N(C)C)C2)nn1` [Example 31, (S)-4-(6-((1-(4-(Difluoromethyl)phenyl)-4-methyl-1H-1,2,3-triazol-5-yl)methoxy)pyridazin-3-yl)-N,N-dimethylpiperazine-2-carboxamide], the Ki was 7.45 nM. With `Cc1nnn(-c2ccc(C(F)F)cc2)c1COc1ccc(N2CC(C(=O)Nc3ccccc3)C2)nn1` [Example 47, 1-(6-((1-(4-(Difluoromethyl)phenyl)-4-methyl-1H-1,2,3-triazol-5-yl)methoxy)pyridazin-3-yl)-N-phenylazetidine-3-carboxamide] the Ki was 1.1 nM. For `Cc1nnn(-c2ccc(C(F)F)cc2)c1COc1ccc(N2CCN3c4ncccc4NC(=O)[C@@H]3C2)nn1` [Example 194, (S)-8-(6-((1-(4-(Difluoromethyl)phenyl)-4-methyl-1H-1,2,3-triazol-5-yl)methoxy)pyridazin-3-yl)-7,8,9,10-tetrahydro-5H-pyrazino[1,2-a]pyrido[3,2-e]pyrazin-6(6aH)-one], the Ki was 0.8 nM. `Cc1nnn(-c2ccc(C(F)F)cc2)c1COc1ccc(N2CC3(CNC(=O)C3)C2)nn1` [Example 87, 2-(6-((1-(4-(Difluoromethyl)phenyl)-4-methyl-1H-1,2,3-triazol-5-yl)methoxy)pyridazin-3-yl)-2,6-diazaspiro[3.4]octan-7-one] was tested, and the Ki was 3.46 nM. `COc1cccnc1NC(=O)C1CN(c2ccc(OCc3c(C)nnn3-c3ccc(C(F)F)cc3)nn2)C1` [Example 152, 1-(6-((1-(4-(Difluoromethyl)phenyl)-4-methyl-1H-1,2,3-triazol-5-yl)methoxy)pyridazin-3-yl)-N-(3-methoxypyridin-2-yl)azetidine-3-carboxamide] gave a Ki of 1.65 nM. Work on `Cc1nnn(-c2ccc(C(F)F)cc2)c1COc1ccc(N2CCCNC(=O)C2)nn1` [Example 4, 4-(6-((1-(4-(Difluoromethyl)phenyl)-4-methyl-1H-1,2,3-triazol-5-yl)methoxy)pyridazin-3-yl)-1,4-diazepan-2-one] yielded a Ki of 7.25 nM. `Cc1nnn(-c2ccc(C(F)F)cc2)c1COc1ccc(N2CC(C(=O)Nc3cnn(C(C)C)c3)C2)nn1` [Example 150, 1-(6-((1-(4-(Difluoromethyl)phenyl)-4-methyl-1H-1,2,3-triazol-5-yl)methoxy)pyridazin-3-yl)-N-(1-isopropyl-1H-pyrazol-4-yl)azetidine-3-carboxamide] showed a Ki of 2.35 nM. `Cc1nnn(-c2ccc(C(F)F)cc2)c1COc1ccc(N2CCN3C(=O)NC(=O)[C@@H]3C2)nn1` [Example 118, (S)-7-(6-((1-(4-(Difluoromethyl)phenyl)-4-methyl-1H-1,2,3-triazol-5-yl)methoxy)pyridazin-3-yl)tetrahydroimidazo[1,5-a]pyrazine-1,3(2H,5H)-dione] was tested, and the Ki was 1.66 nM. In the case of `O=C1NCCN2CCN(c3ccc(OCc4c(C(F)F)nnn4-c4ccc(C(F)F)cc4)nn3)C[C@@H]12` [Example 184, (S)-8-(6-((4-(Difluoromethyl)-1-(4-(difluoromethyl)phenyl)-1H-1,2,3-triazol-5-yl)methoxy)pyridazin-3-yl)hexahydro-2H-pyrazino[1,2-a]pyrazin-1(6H)-one], the Ki is reported as 2.53 nM. `Cc1nnn(-c2ccc(F)cc2)c1COc1ccc(N2CCN(CC(F)(F)F)C(=O)C2)nn1` [Example 94, 4-(6-((1-(4-Fluorophenyl)-4-methyl-1H-1,2,3-triazol-5-yl)methoxy)pyridazin-3-yl)-1-(2,2,2-trifluoroethyl)piperazin-2-one] gave a Ki of 44.3 nM. `Cc1nnn(-c2ccc(C(F)F)cc2)c1COc1ccc(N2CCOC3(CCS(=O)(=O)C3)C2)nn1` (centres unmarked) [Example 105, 9-(6-((1-(4-(Difluoromethyl)phenyl)-4-methyl-1H-1,2,3-triazol-5-yl)methoxy)pyridazin-3-yl)-6-oxa-2-thia-9-azaspiro[4.5]decane 2,2-dioxide] was tested, and the Ki was 1.24 nM. Molecule `Cc1nnn(-c2ccc(Cl)cc2)c1COc1ccc(N2CCNC(=O)C2)nn1` [Example 164, 4-(6-((1-(4-Chlorophenyl)-4-methyl-1H-1,2,3-triazol-5-yl)methoxy)pyridazin-3-yl)piperazin-2-one] has a Ki of 2.4 nM. `Cc1nnn(-c2ccc(C(F)F)cc2)c1COc1ccc(N2CCN3c4ccncc4NC(=O)[C@@H]3C2)nn1` [Example 192, (S)-8-(6-((1-(4-(Difluoromethyl)phenyl)-4-methyl-1H-1,2,3-triazol-5-yl)methoxy)pyridazin-3-yl)-7,8,9,10-tetrahydro-5H-pyrazino[1,2-a]pyrido[3,4-e]pyrazin-6(6aH)-one] showed a Ki of 17.4 nM. With `Cc1nnn(-c2ccc(C(F)F)cc2)c1COc1ccc(N2CCN3C(=O)COC[C@@H]3C2)nn1` [Example 9, (S)-8-(6-((1-(4-(Difluoromethyl)phenyl)-4-methyl-1H-1,2,3-triazol-5-yl)methoxy)pyridazin-3-yl)hexahydropyrazino[2,1-c][1,4]oxazin-4(3H)-one] the Ki was 1.46 nM. In the case of `Cc1nnn(-c2ccc(C(F)F)cc2)c1COc1ccc(N2CC(=O)N3CCN(CC(F)(F)F)CC3C2)nn1` (centres unmarked) [Example 91, 2-(6-((1-(4-(Difluoromethyl)phenyl)-4-methyl-1H-1,2,3-triazol-5-yl)methoxy)pyridazin-3-yl)-8-(2,2,2-trifluoroethyl)octahydro-4H-pyrazino[1,2-a]pyrazin-4-one], the Ki is reported as 1.13 nM. Work on `Cc1nnn(-c2ccc(CO)cc2)c1COc1ccc(N2CCNC(=O)C2)nn1` [Example 79, 4-(6-((1-(4-(hydroxymethyl)phenyl)-4-methyl-1H-1,2,3-triazol-5-yl)methoxy)pyridazin-3-yl)piperazin-2-one] yielded a Ki of 32.5 nM. `Cc1nnn(-c2ccc(C(F)F)cc2)c1COc1ccc(N2CCN(c3cnn(C)c3)C(=O)C2)nn1` [Example 111, 4-(6-((1-(4-(Difluoromethyl)phenyl)-4-methyl-1H-1,2,3-triazol-5-yl)methoxy)pyridazin-3-yl)-1-(1-methyl-1H-pyrazol-4-yl)piperazin-2-one] gave a Ki of 0.93 nM. Work on `Cc1nnn(-c2ccc(C(F)F)cc2)c1COc1ccc(N2CC(C(C)C)N3CCNC[C@H]3C2=O)nn1` (some centres unmarked) [Example 215] yielded a Ki of 36.1 nM. In the case of `COc1cnccc1NC(=O)C1CN(c2ccc(OCc3c(C)nnn3-c3ccc(C(F)F)cc3)nn2)C1` [Example 149, 1-(6-((1-(4-(Difluoromethyl)phenyl)-4-methyl-1H-1,2,3-triazol-5-yl)methoxy)pyridazin-3-yl)-N-(3-methoxypyridin-4-yl)azetidine-3-carboxamide], the Ki is reported as 2.04 nM. `Cc1nnn(-c2ccc(C(F)F)cc2)c1COc1ccc(N2CCN(c3cnn(C(F)F)c3)C(=O)C2)nn1` [Example 113, 1-(1-(Difluoromethyl)-1H-pyrazol-4-yl)-4-(6-((1-(4-(difluoromethyl)phenyl)-4-methyl-1H-1,2,3-triazol-5-yl)methoxy)pyridazin-3-yl)piperazin-2-one] was tested, and the Ki was 1.17 nM. In the case of `Cc1nnn(-c2ccc(C(F)F)cc2)c1COc1ccc(N2C(=O)NC(C)(C)C2=O)nn1` [Example 25, 3-(6-((1-(4-(Difluoromethyl)phenyl)-4-methyl-1H-1,2,3-triazol-5-yl)methoxy)pyridazin-3-yl)-5,5-dimethylimidazolidine-2,4-dione], the Ki is reported as 24.4 nM. `Cc1nnn(-c2ccc(C(F)F)cc2)c1COc1nnc(N2CCN3CCNC(=O)[C@@H]3C2)c2ncccc12` [Example 206, (S)-8-(5-((1-(4-(Difluoromethyl)phenyl)-4-methyl-1H-1,2,3-triazol-5-yl)methoxy)pyrido[2,3-d]pyridazin-8-yl)hexahydro-2H-pyrazino[1,2-a]pyrazin-1(6H)-one] showed a Ki of 0.64 nM. `O=C1CN(c2ccc(OCc3c(Cl)nnn3-c3ccc(C(F)F)cc3)nn2)C[C@@H]2COCCN12` [Example 182, (R)-8-(6-((4-Chloro-1-(4-(difluoromethyl)phenyl)-1H-1,2,3-triazol-5-yl)methoxy)pyridazin-3-yl)hexahydropyrazino[2,1-c][1,4]oxazin-6(1H)-one] gave a Ki of 0.71 nM. Molecule `Cc1nnn(-c2ccc(C(F)F)cc2)c1COc1ccc(N2CCN3c4nc(F)ccc4NC(=O)[C@@H]3C2)nn1` [Example 195, (S)-8-(6-((1-(4-(Difluoromethyl)phenyl)-4-methyl-1H-1,2,3-triazol-5-yl)methoxy)pyridazin-3-yl)-2-fluoro-7,8,9,10-tetrahydro-5H-pyrazino[1,2-a]pyrido[3,2-e]pyrazin-6(6aH)-one] has a Ki of 0.54 nM. `Cc1nnn(-c2ccc(C(F)F)cc2)c1COc1ccc(N2CC3(CCNC3=O)C2)nn1` [Example 86, 2-(6-((1-(4-(Difluoromethyl)phenyl)-4-methyl-1H-1,2,3-triazol-5-yl)methoxy)pyridazin-3-yl)-2,6-diazaspiro[3.4]octan-5-one] gave a Ki of 8.31 nM. With `COC1CCN(c2ccc(OCc3c(C)nnn3-c3ccc(C(F)F)cc3)nn2)C1` (centres unmarked) [Example 1, 3-((1-(4-(Difluoromethyl)phenyl)-4-methyl-1H-1,2,3-triazol-5-yl)methoxy)-6-(3-methoxypyrrolidin-1-yl)pyridazine] the Ki was 1.98 nM. Molecule `COCc1ccc(-n2nnc(C)c2COc2ccc(N3CCN4CCNC(=O)[C@@H]4C3)nn2)cc1` [Example 161, (S)-8-(6-((1-(4-(Methoxymethyl)phenyl)-4-methyl-1H-1,2,3-triazol-5-yl)methoxy)pyridazin-3-yl)hexahydro-2H-pyrazino[1,2-a]pyrazin-1(6H)-one] has a Ki of 13.8 nM. Work on `Cc1nnn(-c2ccc(C#N)cc2)c1COc1ccc(N2CCNC(=O)C2)nn1` [Example 75, 4-(6-((1-(4-Cyanophenyl)-4-methyl-1H-1,2,3-triazol-5-yl)methoxy)pyridazin-3-yl)piperazin-2-one] yielded a Ki of 40.2 nM. `Cc1nnn(-c2ccc(C(F)F)cc2)c1COc1ccc(N2CC(C(=O)Nc3cccnc3F)C2)nn1` [Example 151, 1-(6-((1-(4-(Difluoromethyl)phenyl)-4-methyl-1H-1,2,3-triazol-5-yl)methoxy)pyridazin-3-yl)-N-(2-fluoropyridin-3-yl)azetidine-3-carboxamide] showed a Ki of 1.36 nM.
